Consider three molecules from paper PMC7414093 (Proceedings of the National Academy of Sciences of the …, 2020).

Several values for one entry are separate records, joined by “and”; a condition that tells them apart may be missing. Identical values can stand only once.

The test system of one series is MDCK-SIAT1 cells. To be noted: for cytotoxic concentration (CC)50: dog.
Series [1] in a line: in vitro. To be noted: dog, CC50, compound alone, 72 h.
In series [2] the test system is H1N1 virus expressing A/Beijing/262/1995 (H1/Beijing). Put plainly: microbe, parasite or virus in culture. To be noted: Influenza A virus, H1N1, 72 h, read-out: EC50, virus neutralization. Type of series: cell-based.
Series [3] relates to H5N1 pseudovirus expressing H5 A/Vietnam/1203/2004. Kind of series: organism not typed. Format: cell-based, influenza A virus. To be noted: 72 h, read-out: EC50, virus neutralization.
The next series in a line: Solubility in PBS. Type of series: physicochemical. Conditions: aqueous buffer.
The test system of series [4] is H1N1 virus expressing A/Solomon Islands/3/2006 (H1/SI06). Kind of series: microbe, parasite or virus in culture. Type of series: cell-based, influenza A virus.
Series [5] can be described thus: in vitro. To be noted: human, pH 7.4.
Series [6] deals with H5 A/Vietnam/1203/2004 HA (Influenza A virus, UniProt Q5EP31). Kind of series: biochemical. Type of series: binding.
Another series relates to human cells. Further details: method as in PMID 30846569. Conditions: cited from earlier work.

Consider `O=C(c1ccc(Cl)cc1Cl)N1CCO[C@H](c2ccccc2)C1` [F0045(R)], for which, in the series on MDCK-SIAT1 cells, the “cytotoxic concentration (CC)50” value is over 130 µM. Further, in “in vitro [1]”, the CC50 was 138 µM.
Regarding `O=C(c1ccc(Cl)cc1Cl)N1CCO[C@@H](c2ccccc2)C1` [F0045(S)], the “cytotoxic concentration (CC)50” value with MDCK-SIAT1 cells was over 130 µM. For the same molecule, the CC50 was 157 µM and 84 µM and 98 µM in the series with MDCK-SIAT1 cells (read-out: CC50, compound alone, 72 h); 102 µM in the series “in vitro [1]”. In addition, the EC50 in series [2] is 1.6 ± 0.1 µM; in [3], 22.8 ± 2.3 µM; in [4] (Influenza A virus, H1N1, 72 h, read-out: EC50, virus neutralization), over 150 µM; in series [6], 16.2 ± 3.4 µM. Also, in the series “Solubility in PBS”, the solubility was over 500 µM. Also, in [4], the “protection from infection (in words)” value is reported as “did not protect cells from infection”. The molecule further showed a k el in “in vitro [5]” (0.42 mg) of 0.000283 s⁻¹. The same molecule registered a half-life in the series “in vitro [5]” (microsomes) of 40.8 min. The intrinsic metabolic clearance (microsomal CLint) in the series “in vitro [5]” (microsomes) is 41 µL/min/mg.
`CC(=O)Nc1ccc2oc(-c3ccnc(C(=O)N4CCN([C@H](c5ccccc5)c5nnn(C)n5)CC4)c3)nc2c1` [JNJ4796]: the CC50 in the series with human cells was over 10 µM.
